# Reference: patent publication US20070128217A1 (priority 2003, published 2007)
# What was measured:
# [1] = tested on: rabbit serum obtained by immunizing a rabbit with the SARS-CoV strain Frankfurt 1; assay type: binding; design: Binding of a rabbit serum to linear peptides / Binding of a rabbit serum to looped peptides / Rabbit serum linear peptides / Rabbit serum looped peptides / Binding of a rabbit serum to linear peptides of protein N of SARS-CoV Urbani (Rabbit serum linear peptides) / Binding of a rabbit serum to looped/cyclic peptides of protein N of SARS-CoV Urbani (Rabbit serum looped peptides): unit not given here
# [2] = tested on: control sera (pooled serum of ten healthy LUMC hospital workers; commercial negative donor pooled serum from the Dutch bloodbank); assay type: binding, human; design: Binding of Control serum LUMC to linear peptides / Binding of Control serum Blood-bank to linear peptides / Binding of Control serum LUMC to looped peptides / Binding of Control Serum Blood-Bank to Looped peptides / Binding of Control serum LUMC to linear peptides of the protein M of SARS-CoV Urbani / Binding of Control serum Blood-bank to linear peptides of the protein M of SARS-CoV Urbani / Binding of Control serum LUMC to looped peptides of the protein M of SARS-CoV Urbani / Binding of Control Serum Blood-Bank to Looped peptides of the protein M of SARS-CoV Urbani: unit not given here
# [3] = tested on: antibodies in sera from SARS patients (sera 1a, 1b, 2, 6, 37, 62, London, SARS-yellow, SARS-green); assay type: binding, human; design: Binding of serum 6 to linear peptides of protein X1 of SARS-CoV Urbani / Binding of serum 37 to linear peptides of protein X1 of SARS-CoV Urbani / Binding of serum 6 to looped/cyclic peptide (PEPSCAN-ELISA) / Binding of serum 37 to looped/cyclic peptide (PEPSCAN-ELISA) / Binding of serum 37 to looped/cyclic peptides of protein X1 of SARS-CoV Urbani / Binding of serum 6 to linear peptides of protein X2 / Binding of serum 37 to linear peptides of protein X2 / Binding of serum 37 to looped/cyclic peptides of protein X2 of SARS-CoV Urbani / Binding of serum 6 to linear peptides of protein M of SARS-CoV Urbani / Binding of serum 37 to linear peptides of protein M of SARS-CoV Urbani / Binding of serum 6 to looped/cyclic peptides of protein M of SARS-CoV Urbani / Binding of serum 37 to looped/cyclic peptides of protein M of SARS-CoV Urbani / Binding of serum 6 to linear peptides of protein X3 of SARS-CoV Urbani / Binding of serum 37 to linear peptides of protein X3 of SARS-CoV Urbani / Binding of serum 37 to looped/cyclic peptides of protein X3 of SARS-CoV Urbani / Binding of serum 6 to linear peptides of protein X4 of SARS-CoV Urbani / Binding of serum 37 to linear peptides of protein X4 of SARS-CoV Urbani / Binding of serum 37 to looped/cyclic peptides of protein X4 of SARS-CoV Urbani / Binding of serum 6 to linear peptides of protein X5 of SARS-CoV Urbani / Binding of serum 37 to linear peptides of protein X5 of SARS-CoV Urbani / Binding of serum 37 to looped/cyclic peptides of protein X5 of SARS-CoV Urbani / Binding of serum 6 to linear peptides of protein N of SARS-CoV Urbani / Binding of serum 37 to linear peptides of protein N of SARS-CoV Urbani / Binding of serum 6 to linear peptide (PEPSCAN-ELISA) / Binding of serum 1a to looped/cyclic peptides of protein N of SARS-CoV Urbani / Binding of serum 1b to looped/cyclic peptides of protein N of SARS-CoV Urbani / Binding of serum 2 to looped/cyclic peptides of protein N of SARS-CoV Urbani / Binding of serum 6 to looped/cyclic peptides of protein N of SARS-CoV Urbani / Binding of serum 37 to looped/cyclic peptides of protein N of SARS-CoV Urbani / Binding of serum 62 to looped/cyclic peptides of protein N of SARS-CoV Urbani / Binding of serum London to looped/cyclic peptides of protein N of SARS-CoV Urbani / Binding of serum SARS-green to looped/cyclic peptides of protein N of SARS-CoV Urbani: unit not given here
sequence,measurement,setting,value
LQASLPFGWLVIGVA,Binding of a rabbit serum to linear peptides,[1],0.5
same,Binding of a rabbit serum to looped peptides,[1],0.4
same,Binding of Control Serum Blood-Bank to Looped peptides,[2],0.6
same,Binding of Control serum Blood-bank to linear peptides,[2],0.8
same,Binding of Control serum LUMC to linear peptides,[2],0.5
same,Binding of Control serum LUMC to looped peptides,[2],0.5
same,Binding of serum 1a to linear peptides of protein X1 of SARS-CoV Urbani,[3],0.7
same,Binding of serum 1a to looped/cyclic peptide (PEPSCAN-ELISA),[3],0.4
same,Binding of serum 1b to linear peptides of protein X1 of SARS-CoV Urbani,[3],0.6
same,Binding of serum 1b to looped/cyclic peptide (PEPSCAN-ELISA),[3],0.3
same,Binding of serum 2 to linear peptides of protein X1 of SARS-CoV Urbani,[3],0.6
same,Binding of serum 2 to looped/cyclic peptide (PEPSCAN-ELISA),[3],0.3
same,Binding of serum 6 to linear peptides of protein X1 of SARS-CoV Urbani,[3],0.4
same,Binding of serum 6 to looped/cyclic peptide (PEPSCAN-ELISA),[3],0.3
same,Binding of serum 37 to linear peptides of protein X1 of SARS-CoV Urbani,[3],0.7
same,Binding of serum 37 to looped/cyclic peptide (PEPSCAN-ELISA),[3],0.4
same,Binding of serum 62 to linear peptides of protein X1 of SARS-CoV Urbani,[3],0.7
same,Binding of serum 62 to looped/cyclic peptide (PEPSCAN-ELISA),[3],0.5
same,Binding of serum London to linear peptides of protein X1 of SARS-CoV Urbani,[3],0.2
same,Binding of serum London to looped/cyclic peptide (PEPSCAN-ELISA),[3],0.2
same,Binding of serum SARS-green to linear peptides of protein X1 of SARS-CoV Urbani,[3],0.3
same,Binding of serum SARS-green to looped/cyclic peptide (PEPSCAN-ELISA),[3],0.2
same,Binding of serum SARS-yellow to linear peptides of protein X1 of SARS-CoV Urbani,[3],0.6
same,Binding of serum SARS-yellow to looped/cyclic peptide (PEPSCAN-ELISA),[3],0.4
KEPCPSGTYEGNSPF,Rabbit serum linear peptides,[1],0.4
same,Rabbit serum looped peptides,[1],0.3
same,Binding of Control Serum Blood-Bank to Looped peptides,[2],0.5
same,Binding of Control serum Blood-bank to linear peptides,[2],0.6
same,Binding of Control serum LUMC to linear peptides,[2],0.6
same,Binding of Control serum LUMC to looped peptides,[2],0.8
same,Binding of serum 1a to linear peptides of protein X4 of SARS-CoV Urbani,[3],0.7
same,Binding of serum 1a to looped/cyclic peptides of protein X4 of SARS-CoV Urbani,[3],0.8
same,Binding of serum 1b to linear peptides of protein X4 of SARS-CoV Urbani,[3],0.6
same,Binding of serum 1b to looped/cyclic peptides of protein X4 of SARS-CoV Urbani,[3],0.6
same,Binding of serum 2 to linear peptides of protein X4 of SARS-CoV Urbani,[3],0.4
same,Binding of serum 2 to looped/cyclic peptides of protein X4 of SARS-CoV Urbani,[3],0.6
same,Binding of serum 6 to linear peptides of protein X4 of SARS-CoV Urbani,[3],0.4
same,Binding of serum 6 to looped/cyclic peptides of protein X4 of SARS-CoV Urbani,[3],0.6
same,Binding of serum 37 to linear peptides of protein X4 of SARS-CoV Urbani,[3],0.7
same,Binding of serum 37 to looped/cyclic peptides of protein X4 of SARS-CoV Urbani,[3],0.7
same,Binding of serum 62 to linear peptides of protein X4 of SARS-CoV Urbani,[3],0.8
same,Binding of serum 62 to looped/cyclic peptides of protein X4 of SARS-CoV Urbani,[3],0.6
same,Binding of serum London to linear peptides of protein X4 of SARS-CoV Urbani,[3],0.8
same,Binding of serum London to looped/cyclic peptides of protein X4 of SARS-CoV Urbani,[3],0.3
same,Binding of serum SARS-green to linear peptides of protein X4 of SARS-CoV Urbani,[3],0.6
same,Binding of serum SARS-green to looped/cyclic peptides of protein X4 of SARS-CoV Urbani,[3],0.4
same,Binding of serum SARS-yellow to linear peptides of protein X4 of SARS-CoV Urbani,[3],0.7
same,Binding of serum SARS-yellow to looped/cyclic peptides of protein X4 of SARS-CoV Urbani,[3],0.3
